Results taken from patent US20030023386A1, “Metabolome profiling methods using chromatographic and spectroscopic data in pattern recognition analysis” (priority 2001, published 2003).

What was measured:
[1] = system: Corn plants (Zea mays), Pioneer 3514; experiment: Herbicide mode-of-action recognition by 1H NMR of plant isolates and neural network analysis (Example 8); type: in vivo; conditions: for herbicide treatment group assigned by the neural network: chemically different AHAS inhibitors, output unit activation vs. treatment group; for output unit activation: small NN trained with first batch, tested on second batch, four herbicide groups and control
Protocol: Zea mays seeds (Pioneer 3514) were set to germinate in paper towel rolls in tap water for 5 days in the growing chamber. The environment was adjusted to “summer conditions” (day/night ratio of 14/10 hours, regulated temperature of 27° C. and humidity of 70%). After germination the seedlings were visually inspected. Seedlings that were homogeneous in size and appearance were selected, set in 50-ml amber bottles in 25-ml Hoagland nutrient solution (12 ml micronutrients stock solution, 12 ml FeEDTA (5 g/100 ml), 2.4 ml KH2PO4 (1 M), 24 ml MgSO4 (1 M), 60 ml KNO3 (1 M), 60 ml Ca(NO3)2 (1 M), and 60 ml MES buffer (200 mM), diluted to 12 litre with deionized water) and grown for 5 more days, after which they reached the three-leaf stage. At this point, 20 μl of a stock solution of technical grade herbicide in acetone (see Table I) was added to the hydroponic solution or applied to the second leaf (with similar results). The control group of “Untreated Plants” received 20 μl acetone only and all of the plants were returned to the growing chamber.
Twenty-four hours post-treatment, the plants were harvested by excising between the coleoptile and the first leaf collar. At this time, the plants show only slight growth stunting in response to the treatments. The first leaf sheet was separated and the meristematic tissue (approximately 250 to 300 mg per plant) was collected, flash frozen in liquid nitrogen in a cryogenic 3 ml tube, and stored in a liquid nitrogen freezer until further use. The plant meristems were each pulverized in a mortar (under liquid N2), suspended in 2.4 ml of HCl solution (0.25N) and centrifuged at 14000 g, 4° C., for 60 minutes. The NMR samples were prepared from 0.8 ml of the supernatants and 0.2 ml D2O (with TSP 0.05 w/v) and kept on ice.
(§1) The 500 MHz ^1H NMR spectra of plant extracts were recorded using a Bruker AMX 500 NMR spectrometer equipped with a TXI 5 mm probe. The probe temperature was carefully regulated using the Bruker/Haake variable temperature accessory, and all spectra were recorded under identical experimental conditions, as shown in Table 10:
The time-domain NMR spectra (“FIDs”) were exponential multiplied (LB=0.5 Hz), Fourier transformed, and then phase- and baseline-corrected manually. The frequency domain were exported by the NMR software as J-CAMP formatted files, which were stored in a UNIX subdirectory for “preprocessing” via NN_Tools, as described below.
The frequency domain NMR spectra were “preprocessed” by NN_Tools as follows: J-CAMP formatted spectra files were converted into vectors (8 k real data points), and the files were renamed (renumbered) in order to be processed by further programs in an automatic fashion. A window of points was cut from the central part (around O1) of each vector to delete the residual water signal. Then points were cut from the low field and high field parts of the vector, because no resonance signals were detectable in these regions. Groups of typically five (5) adjacent points were averaged in histogram fashion (“bining”) and the resulting “preprocessed” spectrum comprised 1080 data points. Finally, vertical scaling was applied to meet the signal amplitude requirements of the neural network software.
The artificial neural network calculations described in the report were performed using a standard software package, the Stuttgart Neural Network Simulator (SNNS), on a Silicon Graphics Inc. (SGI) UNIX workstation. A convenient interface called NN_Tools, was developed in-house to perform NMR spectral preprocessing and to format the raw data for input to SNNS. NN_Tools comprises a set of Perl scripts which form patterns out of NMR spectra that can be input automatically to SNNS for the training, validation, and testing steps of neural network simulation. This free software package (“freeware”) was developed at the Institute for Parallel and Distributed High Performance Systems at the University of Stuttgart, Germany. […]

[2] = system: corn (Zea mays) seedlings; experiment: Blind test: NN recognition of mode-of-action of herbicides not used in training; type: in vivo; conditions: NN trained only with untreated, PURSUIT, Diuron, Sethoxydim, Glyphosate; different herbicide concentrations
Protocol: As an example, we have used the NN trained and validated as shown in the above Example 3. It was trained to recognize untreated, PURSUIT®, Diuron, Sethoxydim, and Glyphosate treatment. In a blind test, we presented pattern from samples that were treated with no herbicide or different concentrations of various herbicides. In addition to the herbicides used in the training set, two other imidazolinones: ASSERT® and ARSENAL® (imazapyr and imazamethabenz) and two sulfonylureas GLEAN® and OUST® (chlorsulfuron and sulfometuron) were chosen, and the plants were treated as described above. For the blind test of the ANN analysis tool the samples only the two first to batches contributed samples to the training set. Thereby, the neuronal network had to truly recognized new batches with many samples having compound treatments applied that were unknown to the NN. In summary, we found a complete success of the methodology: The neuronal network classifies all untreated samples correctly as untreated, assigns the correct herbicide treatment for all herbicides that have been previously presented to the NN during training, even if such samples originated from batches that were not part of the NN training.
Note that the learning output target for the test spectra is zero in all cases in FIG. 4a and 4b. The total SSE in the calculation was high because of the difference between the given output value (zero) and the calculated value, but the spectra were correctly classified in all cases as belonging to the second output node, which is imazethapyr or AHAS inhibition. Similar results were obtained for the second set of experiments.

[3] = system: corn (Zea mays) seedlings (Pioneer 3514); experiment: Neural network recognition of treatment from 1H NMR spectra of corn seedling extracts (training/validation cycle); type: in vivo; conditions: for Network Recognition: validation set sel4c.pat, NN trained with 15 spectra (sel4.pat), meristematic tissue harvested 24 hours after treatment
Protocol: For example, corn (Zea mays) seeds (Pioneer 3514) were set to germinate in paper towel rolls in tap water covered with plastic foil (to minimize evaporation) for 5 days in the growing chamber. Conditions were adjusted to “summer days” (day/night 14/10 hours, controlled temperature 27° C. and humidity 70%). After germination the seedlings were visually inspected. Seedlings that were homogeneous in size and appearance were selected and set to grow in hydroponic Hoagland culture solution.
Each seedling was set in a 50 mL dark bottle in 25 mL Hoagland nutrient solution. The plants were then grown for 5 more days after they had reached the three-leaf stage. At this point the hydroponic solution was changed and the seedlings were treated as follows:
Different herbicide stock solutions in acetone were added in concentrated form to the hydroponic solution or, in the case of control plants with 20 μL acetone, or
The hydroponic solution was replaced by a solution containing different concentrations of herbicides, or just hydroponic nutrient solution for control plants.
All herbicides were technical grade. The plants were returned to the growing chamber after treatment. After 24 hours, the plants were harvested by excising between the coleoptile and the first leaf collar. The first leaf sheet was separated and the meristematic tissue collected was flash frozen in liquid nitrogen in a cryogenic 3 ml tube and stored in the liquid nitrogen freezer until further use.
For example, frozen meristematic tissue was placed in a mortar and liquid nitrogen was added. The pestle was also allowed to cool in the liquid nitrogen. When the liquid nitrogen was evaporated, the plant tissue was pulverized in the mortar. Then, 2.4 mL of 0.25N aq. HCl solution were added to the mortar and the sample was further mixed with the pestle. The suspension was placed into an Eppendorf centrifuge tube and set in ice until all the samples for an experiment were processed for centrifugation. The samples were centrifuged at 14000 g, at 4° C., for 60 minutes. The supernatant was separated from the pellet and 0.8 mL taken and mixed with 0.2 mL D2O (with TSP 0.05 w/v for NMR reference) for the lock signal in the spectrometer. The samples were kept in ice until NMR measurement.
as §1, with “proton” for “500 MHz ^1H”, “regulated to better than ±0.1 K” for “regulated”, “follows:” for “shown in Table 10:”
The NMR spectra were multiplied with an exponential function (LB parameter=0.5 Hz), Fourier transformed, and manually phase- and baseline-corrected. Spectra were, in an automatic fashion, exported into JCAMP-DX format and converted into pattern vectors for pattern recognition approaches. A window of points was removed from the central part of each vector prior to analysis, to avoid the water residual signal as shown in FIG. 2. Also, data points were removed at the low field and high field portions of the spectral vector because no resonance signals were detectable in these regions.
A first set of 71 spectra, with 3 batches of 6-9 control samples, 2 batches with 15 PURSUIT® treated samples, and one batch each with 6(4) Sethoxydim, Glyphosate, and Diuron treated samples. Two plants fouled after the herbicide treatment phase, and were treated as separate category, exemplifying samples with very different properties. […]

[4] = system: WT corn (Pioneer 3514, PURSUIT sensitive); experiment: Phenotypic response of corn lines to PURSUIT in hydroponic medium, wild type line; type: in vivo, Zea mays
Protocol: In these experiments, seedlings from three genetically different corn seed lines were germinated, grown in hydroponic medium, excised, extracted and measured as described before. The plants belong to “wild type” (WT, Pioneer 3514, PURSUIT® sensitive), imidazolinone-tolerant (IT, Gerst 8541 heterozygotic, PURSUIT® tolerant), and imidazolinone-resistant (IR, Pioneer 3395, homozygotic, PURSUIT® resistant) lines.
Two batches with five seedlings each from WT, IR, and IT lines, were grown at various levels of PURSUIT® concentration, as follows in Table 5:
The different lines of corn can be distinguished phenotypically at growing levels of herbicide treatment. […] For WT, herbicidal effects are already observed at the lowest (41 μM) PURSUIT® concentration. On the other hand even the IR lines are affected by concentrations of imidazolinones so high as 4 mM. The plants were harvested after only 24 hours after treatment such that phenotypic differences were restricted to the development (or lack) of the fourth leaf. It is important to harvest at an early stage to avoid that the plants become senescent. The senescence process produces accumulation of a series of metabolites that would obscure the metabolic profile response associated with one specific mode of action.

[5] = system: IR corn (Pioneer 3395, homozygotic, PURSUIT resistant); conditions: saturated solution of PURSUIT; cited from earlier work

Compound | herbicide treatment group assigned by the neural network [1] | NN classification of treatment / mode-of-action in blind test [2] | output unit activation [1] | Network Recognition [3] | other results
CC(C)C1(C)N=C(c2ncccc2C(=O)O)NC1=O (stereo not drawn) [ARSENAL®, imazapyr] | imazethapyr | correctly assigned as AHAS inhibitors |  |  | 
CC(NC(=O)C(C)NC(=O)C(N)CCP(C)(=O)O)C(=O)O (stereo not drawn) [Bialaphos] |  |  |  |  | signs of damage of treated plants ([1]; 24-hours post-application, bialaphos formulation): # presented much stronger signs of damage than all the others. Formulations usually produce an effect of faster absorption and sometimes translocation that increases the metabolic response.
CN(C)C(=O)Nc1ccc(Cl)c(Cl)c1 [Diuron] |  |  | ~1 | Diuron | NMR spectral changes of treated samples versus controls ([3]; 1H NMR of corn seedling extracts): most changes versus controls in the resonance region of the sugar-proton
COc1nc(C)nc(NC(=O)NS(=O)(=O)c2ccccc2Cl)n1 [GLEAN®, chlorsulfuron] | imazethapyr | correctly assigned as AHAS inhibitors |  |  | 
O=C(O)CNCP(=O)(O)O [Glyphosate] |  |  | ~1 | Glyphosate | 
Cc1cc(C)nc(NC(=O)NS(=O)(=O)c2ccccc2C(=O)O)n1 [OUST®, sulfometuron] | imazethapyr | correctly assigned as AHAS inhibitors |  |  | 
CCc1cnc(C2=NC(C)(C(C)C)C(=O)N2)c(C(=O)O)c1 (stereo not drawn) [PURSUIT ®, imazethapyr] |  |  | ~1 | PURSUIT ® | PURSUIT concentration at which herbicidal effects are observed ([4]; WT line, lowest concentration tested, hydroponic): ≤ 41 µM; phenotypic response observed ([4]; growing levels of herbicide treatment, within 48 hours): total arrest on the growth of the plants and their wilting; phenotypic response of IR plants [5]: growth arrest
CCC/C(=N\OCC)C1=C(O)CC(CC(C)SCC)CC1=O (stereo not drawn) [Sethoxydim] |  |  | ~1 | Sethoxydim | 
imazamethabenz [ASSERT®] | imazethapyr | correctly assigned as AHAS inhibitors |  |  | 
